Experimental data published in ChEMBL document CHEMBL1122681, “(Acylaryloxy)acetic acid diuretics. 5. [(2-Alkyl- and 2,2-disubstituted-1,3-dioxo-5-indanyl)oxy]acetic acids” (J Med Chem, 1984).

Tests used:
Pan troglodytes [1] = assay: (§1) Compound was evaluated for diuretic activity in chimpanzee measured as increase in the number of microequivalents of Cl- electrolyte/min at 1 mg/kg; format: functional, Urine
Rattus norvegicus [2] = assay: Compound was evaluated for diuretic activity administered orally in female rats measured as milliequivalents of K+x 100 / cage at 3 mg/kg; format: functional, Urine; details: route oral
[3] = volume of urine at 81 mg/kg; format: ADME, organism-based; design: dose 81 mg/kg; details: in vivo
Pan troglodytes [4] = assay: (§2) Compound was evaluated for diuretic activity in chimpanzee measured as increase in the number of microequivalents of Na+ /min at 1 mg/kg; format: functional, Urine
Rattus norvegicus [5] = assay: Compound was evaluated for diuretic activity administered orally in female rats measured as milliequivalents of Cl-x 100 / cage at 3 mg/kg; format: functional, Urine; details: route oral
Pan troglodytes [6] = assay: Compound was evaluated for diuretic activity in chimpanzee measured as increase in volume of urine at 1 mg/kg; format: functional
Rattus norvegicus [7] = assay: Compound was evaluated for diuretic activity administered orally in female rats measured as milliequivalents of K+x 100 / cage at 27 mg/kg; format: functional, Urine; details: route oral
Rattus norvegicus [8] = assay: Compound was evaluated for diuretic activity administered orally in female rats measured as milliequivalents of Cl-x 100 / cage at 9 mg/kg; format: functional, Urine; details: route oral
Canis familiaris [9] = assay: Compound was evaluated for diuretic activity, in female mongrel dogs by measuring amount of K+ in urine after iv administration of 5 mg/kg (control/compound treatment results) Control = 10; format: functional, Canis lupus familiaris
Rattus norvegicus [10] = assay: Compound was evaluated for diuretic activity administered orally in female rats measured as milliequivalents of Cl-x 100 / cage at 81 mg/kg; format: functional, Urine; details: route oral
Rattus norvegicus [11] = assay: Compound was evaluated for diuretic activity administered orally in female rats measured as milliequivalents of Na+x 100 / cage at 9 mg/kg; format: functional, Urine; details: route oral
Rattus norvegicus [12] = assay: Compound was evaluated for diuretic activity administered orally in female rats measured as milliequivalents of K+x 100 / cage at 9 mg/kg; format: functional, Urine; details: route oral
Canis familiaris [13] = assay: Compound was evaluated for diuretic activity, in female mongrel dogs by measuring amount of Na+ in urine after iv administration of 5 mg/kg (control/compound treatment results) Control = 35; format: functional, Canis lupus familiaris
Rattus norvegicus [14] = assay: Compound was evaluated for diuretic activity administered orally in female rats measured as milliequivalents of Na+x 100 / cage at 3 mg/kg; format: functional, Urine; details: route oral
[15] = volume of urine at 3 mg/kg; format: ADME, organism-based; design: dose 3 mg/kg; details: in vivo
Pan troglodytes [16] = assay: Compound was evaluated for diuretic activity in chimpanzee measured as clearance of […] and urate after intravenous administration of 1 mg/kg; format: functional, Urine
Rattus norvegicus [17] = assay: Compound was evaluated for diuretic activity administered orally in female rats measured as milliequivalents of Cl-+x 100 / cage at 27 mg/kg; format: functional, Urine; details: route oral
Pan troglodytes [18] = assay: Compound was evaluated for diuretic activity in chimpanzee measured as increase in the number of microequivalents of Na+ /min at 5 mg/kg; format: functional, Urine
Rattus norvegicus [19] = assay: Compound was evaluated for diuretic activity administered orally in female rats measured as milliequivalents of Na+x 100 / cage at 81 mg/kg; format: functional, Urine; details: route oral
Rattus norvegicus [20] = assay: Compound was evaluated for diuretic activity administered orally in female rats measured as milliequivalents of K+x 100 / cage at 81 mg/kg; format: functional, Urine; details: route oral
Pan troglodytes [21] = assay: Compound was evaluated for diuretic activity in chimpanzee measured as clearance of […] and urate after peroral administration of 5 mg/kg; format: functional, Urine; details: route oral
Canis familiaris [22] = assay: Compound was evaluated for diuretic activity, in female mongrel dogs by measuring amount of Cl- in urine after iv administration of 5 mg/kg (control/compound treatment results) Control = 5; format: functional, Canis lupus familiaris
Pan troglodytes [23] = assay: Compound was evaluated for diuretic activity in chimpanzee measured as increase in volume of urine at 5 mg/kg; format: functional
Rattus norvegicus [24] = assay: Compound was evaluated for diuretic activity administered orally in female rats measured as milliequivalents of Na+x 100 / cage at 27 mg/kg; format: functional, Urine; details: route oral
Canis familiaris [25] = assay: Compound was evaluated for diuretic activity, in female mongrel dogs by measuring volume of urine, after iv administration of 5 mg/kg (control/compound treatment results) Control = 2; format: ADME, organism-based, Canis lupus familiaris; design: dose 5 mg/kg, route intravenous; details: dog, in vivo
Pan troglodytes [26] = assay: Compound was evaluated for diuretic activity in chimpanzee measured as increase in the number of microequivalents of K+ /min at 5 mg/kg; format: functional, Urine
Pan troglodytes [27] = assay: Compound was evaluated for diuretic activity in chimpanzee measured as increase in the number of microequivalents of Cl- electrolyte/min at 5 mg/kg; format: functional, Urine
[28] = volume of urine at 27 mg/kg; format: ADME, organism-based; design: dose 27 mg/kg; details: in vivo
Pan troglodytes [29] = assay: Compound was evaluated for diuretic activity in chimpanzee measured as increase in the number of microequivalents of K+ /min at 1 mg/kg; format: functional, Urine
[30] = volume of urine at 9 mg/kg; format: ADME, organism-based; design: dose 9 mg/kg; details: in vivo
Canis familiaris [31] = assay: Compound was evaluated for diuretic activity, in female mongrel dogs by measuring volume of urine, after iv administration of 5 mg/kg (control/compound treatment results) Control = 1; format: ADME, organism-based, Canis lupus familiaris; design: dose 5 mg/kg, route intravenous; details: dog, in vivo
Canis familiaris [32] = assay: Compound was evaluated for diuretic activity, administered orally in female mongrel dogs (5 mg/kg) measured as milliequivalents of K; format: functional, Canis lupus familiaris, Urine
Pan troglodytes [33] = assay: as §1; format: functional, Urine; remark: listed apart in the source
Canis familiaris [34] = assay: Compound was evaluated for diuretic activity, in female mongrel dogs by measuring amount of Cl- in urine after iv administration of 5 mg/kg (control/compound treatment results) Control = 1; format: functional, Canis lupus familiaris
Pan troglodytes [35] = assay: as §2; format: functional, Urine; remark: listed apart in the source
Pan troglodytes [36] = assay: Compound was evaluated for diuretic activity in chimpanzee measured as clearance of […] and urate after intra venous administration of 1 mg/kg.; format: functional, Urine
Canis familiaris [37] = assay: Compound was evaluated for diuretic activity, in female mongrel dogs by measuring amount of Na+ in urine after iv administration of 5 mg/kg (control/compound treatment results) Control = 29; format: functional, Canis lupus familiaris
Canis familiaris [38] = assay: Compound was evaluated for diuretic activity, administered orally in female mongrel dogs (5 mg/kg) measured as milliequivalents of Na; format: functional, Canis lupus familiaris, Urine
Canis familiaris [39] = assay: Compound was evaluated for diuretic activity, in female mongrel dogs by measuring amount of K+ in urine after iv administration of 5 mg/kg (control/compound treatment results) Control = 18; format: functional, Canis lupus familiaris
Canis familiaris [40] = assay: Compound was evaluated for diuretic activity, administered orally in female mongrel dogs (5 mg/kg) measured as milliequivalents of Cl-; format: functional, Canis lupus familiaris, Urine
Canis familiaris [41] = species: Canis familiaris; assay: volume of urine in dog; format: ADME, organism-based, Canis lupus familiaris; details: in vivo
Pan troglodytes [42] = assay: Compound was evaluated for diuretic activity in chimpanzee measured as increase in the number of microequivalents of K+ /min at 1.5 mg/kg; format: functional, Urine
Canis familiaris [43] = species: Canis familiaris; assay: Volume of urine in dog; format: functional, Canis lupus familiaris
Canis familiaris [44] = assay: Compound was evaluated for diuretic activity, in female mongrel dogs by measuring amount of K+ in urine after iv administration of 5 mg/kg (control/compound treatment results) Control = 13; format: functional, Canis lupus familiaris
Pan troglodytes [45] = assay: Compound was evaluated for diuretic activity in chimpanzee measured as clearance of […] and urate after intra venous administration of.1 5 mg/kg.; format: functional, Urine
Canis familiaris [46] = assay: Compound was evaluated for diuretic activity, in female mongrel dogs by measuring amount of Na+ in urine after iv administration of 5 mg/kg (control/compound treatment results) Control = 59; format: functional, Canis lupus familiaris
Pan troglodytes [47] = assay: Compound was evaluated for diuretic activity in chimpanzee measured as increase in the number of microequivalents of Na+ /min at 1 0.5 mg/kg; format: functional, Urine
Pan troglodytes [48] = assay: Compound was evaluated for diuretic activity in chimpanzee measured as increase in the number of microequivalents of Cl- electrolyte/min at 1.5 mg/kg; format: functional, Urine

Structure (SMILES) | Increase (Pan troglodytes [1]) | Activity (Rattus norvegicus [2]) | Urine volume [3] | Increase (Pan troglodytes [4]) | Activity (Rattus norvegicus [5]) | Increase in volume (Pan troglodytes [6]) | Activity (Rattus norvegicus [7]) | Activity (Rattus norvegicus [8]) | Activity (Rattus norvegicus [10]) | Activity (Rattus norvegicus [11]) | Activity (Rattus norvegicus [12]) | Activity (Rattus norvegicus [14]) | Urine volume [15] | Activity (Rattus norvegicus [17]) | Activity (Rattus norvegicus [19]) | Activity (Rattus norvegicus [20]) | Delta C urate / delta C insulin (Pan troglodytes [21]) | Activity (Rattus norvegicus [24]) | Urine volume [28] | Urine volume [30] | other results
Cc1c(OCC(=O)O)cc2c(c1Cl)C(=O)C(C)(C1CCCC1)C2=O (stereo not drawn) | 129 | 21 | 25 mL | 82 | 17 | 0.6 mL/min | 22 | 30 | 86 | 41 | 24 | 19 | 24 mL | 40 | 76 | 36 | 0.149 | 50 | 27 mL | 27 mL | Activity (Canis familiaris [9]): 41 u equiv min-1; Activity (Canis familiaris [13]): 132 u equiv min-1; Delta C urate / delta C insulin (Pan troglodytes [16]): 0.204; Increase (Pan troglodytes [18]): 388; Activity (Canis familiaris [22]): 48 u equiv min-1; Increase in volume (Pan troglodytes [23]): 0 mL/min; Urine volume (Canis familiaris [25]): 2 mL/min; Increase (Pan troglodytes [26]): 54; Increase (Pan troglodytes [27]): 527; Increase (Pan troglodytes [29]): 51
NS(=O)(=O)c1cc(C(=O)O)c(NCc2ccco2)cc1Cl [FUROSEMIDE] | 928 | 31 | 46 mL | 738 | 71 | 7.3 mL/min | 60 | 96 | 328 | 69 | 39 | 57 | 26 mL | 228 | 253 | 97 | -0.083 | 150 | 36 mL | 28 mL | Urine volume (Canis familiaris [31]): 3 mL/min; Increase (Pan troglodytes [6]): 0.8 mL/min; Activity (Canis familiaris [32]): 31; Increase (Pan troglodytes [33]): 961; Activity (Canis familiaris [34]): 1081 u equiv min-1; Increase (Pan troglodytes [35]): 749; Delta C urate / delta C insulin (Pan troglodytes [36]): -0.005; Activity (Canis familiaris [37]): 960 u equiv min-1; Activity (Canis familiaris [38]): 23; Activity (Canis familiaris [39]): 141 u equiv min-1; Activity (Canis familiaris [40]): 8; Increase (Pan troglodytes [29]): 154; P Increase (Pan troglodytes [29]): 100; Urine volume (Canis familiaris [41]): 36 mL
NS(=O)(=O)c1cc2c(cc1Cl)NCNS2(=O)=O [HYDROCHLOROTHIAZIDE] | – | 50 | 33 mL | – | 146 | 1.8 mL/min | 61 | 143 | 163 | 133 | 33 | 127 | 37 mL | 191 | 154 | 61 | -0.015 | 168 | 32 mL | 30 mL | Increase (Pan troglodytes [42]): 25; Activity (Canis familiaris [32]): 18; Volume of urine (Canis familiaris [43]): 25; Activity (Canis familiaris [44]): 27 u equiv min-1; Increase (Pan troglodytes [18]): 144; Delta C urate / delta C insulin (Pan troglodytes [45]): 0.01; Activity (Canis familiaris [46]): 193 u equiv min-1; Activity (Canis familiaris [38]): 50; Activity (Canis familiaris [22]): 11 u equiv min-1; Increase in volume (Pan troglodytes [23]): 1 mL/min; Increase (Pan troglodytes [47]): 275; Urine volume (Canis familiaris [25]): 3 mL/min; Increase (Pan troglodytes [26]): 93; Increase (Pan troglodytes [27]): 198; Activity (Canis familiaris [40]): 7; Increase (Pan troglodytes [48]): 187
